Laboratory results reported in ChEMBL document CHEMBL3232943, “SAR study on arylmethyloxyphenyl scaffold: looking for a P-gp nanomolar affinity” (Eur J Med Chem, 2014).

How the values were obtained:
[1] = biological target: T1, ATP-dependent translocase ABCB1 (Homo sapiens, UniProt P08183); experiment: Inhibition of P-glycoprotein (unknown origin) expressed in MDCK cells assessed as reduction of calcein-AM transport after 30 mins by fluorescence assay; type: cell-based
[2] = biological target: Multidrug resistance-associated protein 1 (Homo sapiens, UniProt P33527); experiment: Modulation of MRP1 (unknown origin) expressed in MDCK cells at 100 uM; type: cell-based
Chain of Multidrug resistance-associated protein 1 (P33527 whole entry): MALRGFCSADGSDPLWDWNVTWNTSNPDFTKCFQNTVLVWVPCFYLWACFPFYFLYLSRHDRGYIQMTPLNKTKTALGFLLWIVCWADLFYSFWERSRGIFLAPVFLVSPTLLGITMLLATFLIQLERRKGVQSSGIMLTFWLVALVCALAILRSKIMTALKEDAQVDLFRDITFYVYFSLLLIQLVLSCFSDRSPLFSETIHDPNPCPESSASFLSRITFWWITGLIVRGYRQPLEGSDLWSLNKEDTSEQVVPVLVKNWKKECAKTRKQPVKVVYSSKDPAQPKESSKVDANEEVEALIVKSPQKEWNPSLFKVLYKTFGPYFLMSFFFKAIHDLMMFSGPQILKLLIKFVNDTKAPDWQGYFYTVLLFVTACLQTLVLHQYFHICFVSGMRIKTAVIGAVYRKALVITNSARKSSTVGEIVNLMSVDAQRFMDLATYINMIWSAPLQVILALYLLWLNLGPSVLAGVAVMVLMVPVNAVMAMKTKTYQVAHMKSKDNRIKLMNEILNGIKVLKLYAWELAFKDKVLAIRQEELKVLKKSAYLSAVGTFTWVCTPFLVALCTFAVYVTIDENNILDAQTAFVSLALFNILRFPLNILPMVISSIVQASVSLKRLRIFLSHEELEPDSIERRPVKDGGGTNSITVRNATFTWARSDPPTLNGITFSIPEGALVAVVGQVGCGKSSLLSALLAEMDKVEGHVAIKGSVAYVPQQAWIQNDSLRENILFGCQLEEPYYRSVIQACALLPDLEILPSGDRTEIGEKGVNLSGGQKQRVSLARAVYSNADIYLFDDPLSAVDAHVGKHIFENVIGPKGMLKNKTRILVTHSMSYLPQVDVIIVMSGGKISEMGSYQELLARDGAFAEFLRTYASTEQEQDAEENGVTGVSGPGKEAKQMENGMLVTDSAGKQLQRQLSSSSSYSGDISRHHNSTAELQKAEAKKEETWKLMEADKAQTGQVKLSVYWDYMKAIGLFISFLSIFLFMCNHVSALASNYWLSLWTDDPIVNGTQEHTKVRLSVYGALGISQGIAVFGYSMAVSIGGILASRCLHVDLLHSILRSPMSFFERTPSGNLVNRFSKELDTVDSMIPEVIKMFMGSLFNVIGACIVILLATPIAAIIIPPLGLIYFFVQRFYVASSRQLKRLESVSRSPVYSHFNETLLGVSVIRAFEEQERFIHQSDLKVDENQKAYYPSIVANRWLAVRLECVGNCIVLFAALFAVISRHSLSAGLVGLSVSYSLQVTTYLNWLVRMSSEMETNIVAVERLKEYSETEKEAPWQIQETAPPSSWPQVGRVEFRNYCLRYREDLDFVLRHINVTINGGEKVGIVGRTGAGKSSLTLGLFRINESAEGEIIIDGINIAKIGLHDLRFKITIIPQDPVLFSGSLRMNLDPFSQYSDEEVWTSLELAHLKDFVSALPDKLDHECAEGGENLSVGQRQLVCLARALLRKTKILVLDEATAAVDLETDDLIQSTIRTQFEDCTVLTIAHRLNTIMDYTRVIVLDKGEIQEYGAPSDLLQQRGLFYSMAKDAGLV

[3] = Efflux ratio of permeability from basolateral to apical side over apical to basolateral side in human Caco2 cells at 100 uM after 30 mins by UV spectroscopy; type: ADME, cell-based; conditions: Caco-2
[4] = biological target: T1, ATP-dependent translocase ABCB1; experiment: Activation of ATPase activity of MDR1 (unknown origin) expressed in MDCK cells assessed as reduction of reduction of ATP level at 100 uM after 2 hrs by luminescence/ATPlite assay; type: cell-based; design: scale not given: the % may be the effect or the level left
[5] = Cytotoxicity against MDR1 expressing MDCK cells assessed as cell viability at 1 uM after 48 hrs by MTT assay in presence of MC18 P-gp inhibitor; type: ADME, cell-based, Canis lupus familiaris; conditions: dog, with MC18 (P-gp inhibitor), concentration not stated, read-out: Activity
MDCK = experiment: Cytotoxicity against MDR1 expressing MDCK cells assessed as cell viability at 1 uM after 24 hrs by MTT assay; type: ADME, cell-based, Canis lupus familiaris; conditions: dog
[6] = Cytotoxicity against MDR1 expressing MDCK cells assessed as cell viability at 1 uM after 48 hrs by MTT assay; type: ADME, cell-based, Canis lupus familiaris; conditions: dog, read-out: Activity

T1 sequence (P08183 whole entry): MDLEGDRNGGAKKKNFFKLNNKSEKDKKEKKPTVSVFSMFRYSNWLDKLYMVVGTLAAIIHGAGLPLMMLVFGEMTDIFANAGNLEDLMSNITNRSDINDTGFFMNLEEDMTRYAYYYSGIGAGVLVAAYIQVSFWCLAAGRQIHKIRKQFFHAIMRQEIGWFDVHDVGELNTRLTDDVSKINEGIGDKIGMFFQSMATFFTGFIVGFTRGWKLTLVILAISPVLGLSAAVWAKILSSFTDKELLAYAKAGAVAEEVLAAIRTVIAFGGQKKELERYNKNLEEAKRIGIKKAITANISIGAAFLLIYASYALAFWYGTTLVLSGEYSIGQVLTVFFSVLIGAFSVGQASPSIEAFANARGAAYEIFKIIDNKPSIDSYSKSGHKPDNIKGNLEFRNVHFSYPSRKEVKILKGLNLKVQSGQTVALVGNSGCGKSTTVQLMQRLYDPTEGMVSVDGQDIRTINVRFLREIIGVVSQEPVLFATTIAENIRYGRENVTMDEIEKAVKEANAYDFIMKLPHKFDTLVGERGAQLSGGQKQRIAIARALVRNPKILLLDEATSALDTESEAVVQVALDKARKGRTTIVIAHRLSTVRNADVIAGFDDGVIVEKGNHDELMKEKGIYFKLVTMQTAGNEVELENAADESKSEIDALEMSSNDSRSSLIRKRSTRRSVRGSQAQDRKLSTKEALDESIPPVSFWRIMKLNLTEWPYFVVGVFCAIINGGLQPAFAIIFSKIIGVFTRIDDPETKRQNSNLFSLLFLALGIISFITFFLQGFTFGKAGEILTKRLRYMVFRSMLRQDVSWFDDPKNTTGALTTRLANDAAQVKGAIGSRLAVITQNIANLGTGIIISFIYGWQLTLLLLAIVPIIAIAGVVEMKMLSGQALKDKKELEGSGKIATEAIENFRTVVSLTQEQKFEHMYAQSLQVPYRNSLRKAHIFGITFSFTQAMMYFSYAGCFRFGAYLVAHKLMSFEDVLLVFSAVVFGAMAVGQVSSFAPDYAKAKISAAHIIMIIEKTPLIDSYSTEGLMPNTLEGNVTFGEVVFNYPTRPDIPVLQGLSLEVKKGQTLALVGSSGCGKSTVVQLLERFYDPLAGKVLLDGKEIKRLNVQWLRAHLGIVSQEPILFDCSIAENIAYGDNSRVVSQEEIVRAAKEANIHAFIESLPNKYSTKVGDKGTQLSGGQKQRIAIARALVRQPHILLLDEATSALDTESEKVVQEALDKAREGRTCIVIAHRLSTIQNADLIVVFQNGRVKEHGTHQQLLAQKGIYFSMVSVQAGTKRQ

Row | Compound | EC50 [1] [µM] | Activity [2] | efflux ratio at 0.5 h, 100 µM [3] | Activity [4] | viability at 48 h, 1 µM [5] [%] | Activity (MDCK) | viability at 48 h, 1 µM [6] [%]
1 | COc1cccc(CCc2ccccc2OCc2cc(OC)c(OC)c(OC)c2)c1OC | 0.3 | Not Active | 3.23 | Active |  |  | 
2 | COc1ccc(CCc2ccccc2OCc2ccc(OC)c(OC)c2)cc1OC | 2.1 | Not Active | 2.77 | Not Active |  |  | 
3 | COc1cccc(COc2ccccc2CCc2cc(OC)c(OC)c(OC)c2)c1OC | 3.2 | Not Active | 3.45 | Active |  |  | 
4 | COc1cccc(CCc2ccccc2NC(=O)c2cccnc2)c1 | 43.7 | Not Active |  | Active |  |  | 
5 | COc1cccc(CCc2ccccc2OCc2ccc3c(c2)OCO3)c1 | > 100 | Not Active |  | Active |  |  | 
6 | COc1cc(COc2ccccc2CCc2cc(OC)c(OC)c(OC)c2)cc(OC)c1 | 1.3 | Not Active |  | Not Active |  |  | 
7 | COc1cccc(CCc2ccccc2OCc2ncccn2)c1 | 32.5 | Not Active | 2.91 | Active |  |  | 
8 | COc1cc2c(cc1OC)CN(CCc1ccc(NC(=O)c3cc(OC)c(OC)cc3NC(=O)c3cnc4ccccc4c3)cc1)CC2 [TARIQUIDAR] |  |  | 22 | 30% |  |  | 
9 | Clc1ccc(COc2ccccc2CCc2ccccc2)c(Cl)c1 | > 100 | Not Active |  |  |  |  | 
10 | COc1cccc(CCc2ccccc2NCc2ccncc2)c1 | 11.5 | Not Active | 3 | Active |  |  | 
11 | COc1cccc(CCc2ccccc2OCc2cc(OC)c(OC)c(OC)c2)c1 | 3.1 | Not Active | 3.14 | Not Active |  |  | 
12 | COc1ccc(COc2ccccc2CCc2cc(OC)c(OC)c(OC)c2)cc1OC | 0.9 | Not Active | 3.8 | Active |  |  | 
13 | COc1cccc(CCc2ccccc2OCc2cccs2)c1 | > 100 | Not Active |  | Active |  |  | 
14 | COc1cccc(CCc2ccccc2NC(=O)c2cccc(OC)c2)c1 | 10.9 | Not Active | 4.1 | Active |  |  | 
15 | COc1cc(CCc2ccccc2OCc2cc(OC)c(OC)c(OC)c2)cc(OC)c1OC | 0.0071 | Not Active | 3.96 | Active | 63 | Non-toxic | 40
